# Test results: patent US20230314454A1, “BLOOD COAGULATION TEST REAGENT, AND BLOOD COAGULATION TEST METHOD” (Thrombo Translational Research Lab Inc., priority 2020, published 2023)
# Legend:
# [1] = test system: thrombin generation in control plasma; assay: Thrombin generation test (TF/FXIa initiation reagent), DOACs spiked into control plasma; assay type: biochemical, human; conditions: DOAC added to control plasma at 18.5 ng/mL to 500 ng/mL; FIG. 2
# Description: (§1) The thrombin generation initiation reagent was prepared by mixing the following reagents. The thrombin formation initiation reagent was appropriately diluted with 50 mM tris buffer solution containing 0.5% bovine serum albumin (purchased from FUJIFILM Wako Pure Chemical Corporation) and 0.15 M sodium chloride (purchased from FUJIFILM Wako Pure Chemical Corporation) (BSA/TBS, pH 7.4). • Human TF (Dade Innovin, purchased from SYSMEX CORPORATION) solution • Human FXIa (purchased from Funakoshi Co., Ltd.) solution • Synthetic phospholipids (purchased from Haematex) solution • Calcium chloride (purchased from FUJIFILM Wako Pure Chemical Corporation) solution […]
# To quantify the generated thrombin, the thrombin detection reagent containing EDTA, which was a reaction stopping reagent, was then added to the plasma, followed by incubation at 37° C. for 1 minute. Since thrombin hydrolyzed the thrombin fluorogenic substrate to emit fluorescence during the incubation, the fluorescence intensity was measured using a fluorescence plate reader (excitation wavelength: 355 nm, fluorescence wavelength: 460 nm). The measured fluorescence intensity was converted into the thrombin concentration based on a standard curve constructed using a thrombin standard substance (Technothrombin TGA calibrator, purchased from Cosmo Bio Co., Ltd.). […]
# [2] = test system: blood coagulant activity (clotting time); assay: Blood coagulation tests APTT and PT-INR in plasma after taking apixaban; assay type: in vivo, human; conditions: patients #004 and #005, after taking 10 mg apixaban
# Description: The coagulant activity of each of the test plasma specimen was tested using APTT and PT-INR test methods as blood coagulation tests. In both methods, the coagulant activity was determined by measuring clotting time after adding the coagulation initiation reagent into plasma specimens.
# [3] = test system: thrombin generation in patient plasma; assay: Thrombin generation test (TF/FXIa initiation reagent), apixaban spiked into patient plasma; assay type: biochemical, human
# Description: (§2) In test, plasma specimens were prepared by centrifugation of blood that was collected using an anticoagulant citric acid. The plasma specimens were frozen at −80° C. until the test starts, and thawed at 37° C. immediately before the test, and used.
# as §1
# (§3) To quantify the generated thrombin, the thrombin detection reagent containing EDTA, which was a reaction stopping reagent, was then added to the plasma, followed by incubation at 37° C. for 1 minute. Since thrombin hydrolyzed the thrombin fluorogenic substrate to emit fluorescence during the incubation, the fluorescence intensity was measured using a fluorescence plate reader (excitation wavelength: 355 nm, fluorescence wavelength: 460 nm). The measured fluorescence intensity was converted into the thrombin concentration based on a standard curve constructed using a thrombin standard substance (Technothrombin TGA calibrator, purchased from Cosmo Bio Co., Ltd.). The thrombin generation in the plasma was expressed as a relative ratio (%) with respect to the thrombin generation in control plasma (Siemens control plasma N for blood coagulation test, purchased from SYSMEX CORPORATION).
# To test inhibitory effect of the DOACs on thrombin generation, Test specimens were prepared by spiking rivaroxaban, apixaban, or edoxaban into plasma, and the thrombin generation in the plasma was assessed. […]
# [4] = test system: thrombin generation in plasma; assay: Thrombin generation in plasma over time after taking apixaban; assay type: in vivo, human; conditions: patients #004 and #005, 10 mg apixaban taken
# Description: as §2
# The thrombin generation initiation reagent was prepared by mixing the following reagents. […]
# as §3, with “CORPORATION). […]” for “CORPORATION).”
SMILES,inhibitory effect on thrombin generation compared among the three DOACs [1],change in blood coagulant activities measured by APTT and PT-INR [2],"effect of apixaban addition on thrombin generation in patient plasma ([3]; apixaban 125, 250 or 500 ng/mL, plasma of patients #001, #002, #003, 150 fM TF, 12.5 pM FXIa)",thrombin generation relative to control plasma ([3]; plasma of patient #003 after adding apixaban (125-500 ng/mL)),thrombin generation relative to control plasma ([3]; plasma of patients #001 and #002 after adding apixaban (125-500 ng/mL)),change in thrombin generation after taking apixaban [4]
O=C(NC[C@H]1CN(c2ccc(N3CCOCC3=O)cc2)C(=O)O1)c1ccc(Cl)s1 [rivaroxaban],strongest inhibitory effect,–,–,–,–,–
COc1ccc(-n2nc(C(N)=O)c3c2C(=O)N(c2ccc(N4CCCCC4=O)cc2)CC3)cc1 [apixaban],–,no significant alteration,suppressed thrombin generation in the plasma from the patient in a dose-dependent fashion,25%,≤ 5%,decreased with increase in apixaban concentrations
